Assay results: ChEMBL document CHEMBL1148579, “Influence of various central moieties on the hypolipidemic properties of long hydrocarbon chain diols and diacids” (J Med Chem, 2006); call rule not given here
One block for each compound: values may come before it.

Key:
Rattus norvegicus [1] = assay: Activity against non high density lipoprotein cholesterol level in obese female Zucker rat serum after 1 week at 53 mg/kg (percent change from pre-treatment); format: functional
Rattus norvegicus [2] = assay: Activity against high density lipoprotein cholesterol level in obese female Zucker rat serum after 2 weeks at 53 mg/kg (percent change from pre-treatment); format: functional
Rattus norvegicus [3] = assay: Activity against high density lipoprotein cholesterol level in obese female Zucker rat serum after 1 week at 53 mg/kg (percent change from pre-treatment); format: functional
Rattus norvegicus [4] = assay: Activity against triglyceride level in obese female Zucker rat serum after 2 weeks at 53 mg/kg (percent change from pre-treatment); format: functional
Rattus norvegicus [5] = assay: Activity against triglyceride level in obese female Zucker rat serum after 1 week at 53 mg/kg (percent change from pre-treatment); format: functional
Rattus norvegicus [6] = assay: Activity against non high density lipoprotein cholesterol level in obese female Zucker rat serum after 2 weeks at 53 mg/kg (percent change from pre-treatment); format: functional
Hepatocyte = assay: Inhibition of lipid synthesis in primary rat hepatocytes by incorporation radiolabeled acetate into cellular lipids; format: functional, cell-based, Sprague-Dawley
Rattus norvegicus [7] = assay: Activity against triglyceride level in obese female Zucker rat serum after 1 week at 80 mg/kg (percent change from pre-treatment); format: functional
Rattus norvegicus [8] = assay: Activity against high density lipoprotein cholesterol level in obese female Zucker rat serum after 1 week at 80 mg/kg (percent change from pre-treatment); format: functional
Rattus norvegicus [9] = assay: Activity against high density lipoprotein cholesterol level in obese female Zucker rat serum after 2 weeks at 80 mg/kg (percent change from pre-treatment); format: functional
Rattus norvegicus [10] = assay: Activity against non high density lipoprotein cholesterol level in obese female Zucker rat serum after 2 weeks at 80 mg/kg (percent change from pre-treatment); format: functional
Rattus norvegicus [11] = assay: Activity against triglyceride level in obese female Zucker rat serum after 2 weeks at 80 mg/kg (percent change from pre-treatment); format: functional
Rattus norvegicus [12] = assay: Activity against non high density lipoprotein cholesterol level in obese female Zucker rat serum after 1 week at 80 mg/kg (percent change from pre-treatment); format: functional
Rattus norvegicus [13] = assay: AUC (infinity) of the metabolite 7-hydroxy-2,2,12,12-tetramethyltridecanedioic acid in male Wistar rat administered with the parent compound at 100 mg/kg, po; format: ADME, organism-based, Plasma; design: time infinity, dose 100 mg/kg, route oral; settings: in vivo
Rattus norvegicus [14] = assay: Volume of distribution of the metabolite 7-hydroxy-2,2,12,12-tetramethyltridecanedioic acid in male Wistar rat administered with the parent compound at 100 mg/kg, po; format: ADME, organism-based; design: dose 100 mg/kg, route oral; settings: in vivo
Rattus norvegicus [15] = assay: Clearance of the metabolite 7-hydroxy-2,2,12,12-tetramethyltridecanedioic acid in male Wistar rat administered with the parent compound at 100 mg/kg, po; format: ADME, organism-based; design: dose 100 mg/kg, route oral; settings: in vivo
Rattus norvegicus [16] = assay: AUC of the metabolite 2,2,12,12-tetramethyl-7-oxotridecanedioic acid in male Wistar rat administered with the parent compound at 100 mg/kg, po; format: ADME, organism-based, Plasma; design: dose 100 mg/kg, route oral; settings: in vivo
Rattus norvegicus [17] = assay: Cmax of the metabolite 7,13-dihydroxy-2,2,12,12-tetramethyltridecanoic acid in male Wistar rat administered with the parent compound at 100 mg/kg, po; format: ADME, organism-based; design: dose 100 mg/kg, route oral; settings: in vivo
Rattus norvegicus [18] = assay: Activity against triglyceride level in obese female Zucker rat serum after 2 weeks at 100 mg/kg (percent change from pre-treatment); format: functional
Rattus norvegicus [19] = assay: Activity against high density lipoprotein cholesterol level in obese female Zucker rat serum after 1 week at 100 mg/kg (percent change from pre-treatment); format: functional
Rattus norvegicus [20] = assay: Volume of distribution of the metabolite 7,13-dihydroxy-2,2,12,12-tetramethyltridecanoic acid in male Wistar rat administered with the parent compound at 100 mg/kg, po; format: ADME, organism-based; design: dose 100 mg/kg, route oral; settings: in vivo
Rattus norvegicus [21] = assay: AUC (infinity) of the metabolite 13-hydroxy-2,2,12,12-tetramethyl-7-oxotridecanoic acid in male Wistar rat administered with the parent compound at 100 mg/kg, po; format: ADME, organism-based, Plasma; design: time infinity, dose 100 mg/kg, route oral; settings: in vivo
Rattus norvegicus [22] = assay: Activity against high density lipoprotein cholesterol level in obese female Zucker rat serum after 2 weeks at 100 mg/kg (percent change from pre-treatment); format: functional
Rattus norvegicus [23] = assay: Tmax of the metabolite 2,2,12,12-tetramethyl-7-oxotridecanedioic acid in male Wistar rat administered with the parent compound at 100 mg/kg, po; format: ADME, organism-based; design: dose 100 mg/kg, route oral; settings: in vivo
Rattus norvegicus [24] = assay: Activity against non high density lipoprotein cholesterol level in obese female Zucker rat serum after 2 weeks at 100 mg/kg (percent change from pre-treatment); format: functional
Rattus norvegicus [25] = assay: AUC of the metabolite 7,13-dihydroxy-2,2,12,12-tetramethyltridecanoic acid in male Wistar rat administered with the parent compound at 100 mg/kg, po; format: ADME, organism-based, Plasma; design: dose 100 mg/kg, route oral; settings: in vivo
Rattus norvegicus [26] = assay: Activity against non high density lipoprotein cholesterol level in obese female Zucker rat serum after 1 week at 100 mg/kg (percent change from pre-treatment); format: functional
Rattus norvegicus [27] = assay: AUC of the metabolite 7-hydroxy-2,2,12,12-tetramethyltridecanedioic acid in male Wistar rat administered with the parent compound at 100 mg/kg, po; format: ADME, organism-based, Plasma; design: dose 100 mg/kg, route oral; settings: in vivo
Rattus norvegicus [28] = assay: Clearance of the metabolite 7,13-dihydroxy-2,2,12,12-tetramethyltridecanoic acid in male Wistar rat administered with the parent compound at 100 mg/kg, po; format: ADME, organism-based; design: dose 100 mg/kg, route oral; settings: in vivo
Rattus norvegicus [29] = assay: Volume of distribution of the metabolite 2,2,12,12-tetramethyl-7-oxotridecanedioic acid in male Wistar rat administered with the parent compound at 100 mg/kg, po; format: ADME, organism-based; design: dose 100 mg/kg, route oral; settings: in vivo
Rattus norvegicus [30] = assay: Tolerability of compound upto 2000 mg/kg; format: organism-based; design: dose 2000 mg/kg; settings: in vivo
Rattus norvegicus [31] = assay: AUC (infinity) of the metabolite 7,13-dihydroxy-2,2,12,12-tetramethyltridecanoic acid in male Wistar rat administered with the parent compound at 100 mg/kg, po; format: ADME, organism-based, Plasma; design: time infinity, dose 100 mg/kg, route oral; settings: in vivo
Rattus norvegicus [32] = assay: Clearance of the metabolite 13-hydroxy-2,2,12,12-tetramethyl-7-oxotridecanoic acid in male Wistar rat administered with the parent compound at 100 mg/kg, po; format: ADME, organism-based; design: dose 100 mg/kg, route oral; settings: in vivo
Rattus norvegicus [33] = assay: Half life of the metabolite 2,2,12,12-tetramethyl-7-oxotridecanedioic acid in male Wistar rat administered with the parent compound at 100 mg/kg, po; format: ADME, organism-based; design: dose 100 mg/kg, route oral; settings: in vivo
Rattus norvegicus [34] = assay: Half life of the metabolite 7-hydroxy-2,2,12,12-tetramethyltridecanedioic acid in male Wistar rat administered with the parent compound at 100 mg/kg, po; format: ADME, organism-based; design: dose 100 mg/kg, route oral; settings: in vivo
Rattus norvegicus [35] = assay: Half life of the metabolite 7,13-dihydroxy-2,2,12,12-tetramethyltridecanoic acid in male Wistar rat administered with the parent compound at 100 mg/kg, po; format: ADME, organism-based; design: dose 100 mg/kg, route oral; settings: in vivo
Rattus norvegicus [36] = assay: Tmax of the metabolite 7-hydroxy-2,2,12,12-tetramethyltridecanedioic acid in male Wistar rat administered with the parent compound at 100 mg/kg, po; format: ADME, organism-based; design: dose 100 mg/kg, route oral; settings: in vivo
Rattus norvegicus [37] = assay: Volume of distribution of the metabolite 13-hydroxy-2,2,12,12-tetramethyl-7-oxotridecanoic acid in male Wistar rat administered with the parent compound at 100 mg/kg, po; format: ADME, organism-based; design: dose 100 mg/kg, route oral; settings: in vivo
Rattus norvegicus [38] = assay: AUC (infinity) of the metabolite 2,2,12,12-tetramethyl-7-oxotridecanedioic acid in male Wistar rat administered with the parent compound at 100 mg/kg, po; format: ADME, organism-based, Plasma; design: time infinity, dose 100 mg/kg, route oral; settings: in vivo
Rattus norvegicus [39] = assay: Clearance of the metabolite 2,2,12,12-tetramethyl-7-oxotridecanedioic acid in male Wistar rat administered with the parent compound at 100 mg/kg, po; format: ADME, organism-based; design: dose 100 mg/kg, route oral; settings: in vivo
Rattus norvegicus [40] = assay: Tmax of the metabolite 7,13-dihydroxy-2,2,12,12-tetramethyltridecanoic acid in male Wistar rat administered with the parent compound at 100 mg/kg, po; format: ADME, organism-based; design: dose 100 mg/kg, route oral; settings: in vivo
Rattus norvegicus [41] = assay: AUC of the metabolite 13-hydroxy-2,2,12,12-tetramethyl-7-oxotridecanoic acid in male Wistar rat administered with the parent compound at 100 mg/kg, po; format: ADME, organism-based, Plasma; design: dose 100 mg/kg, route oral; settings: in vivo
Rattus norvegicus [42] = assay: Cmax of the metabolite 13-hydroxy-2,2,12,12-tetramethyl-7-oxotridecanoic acid in male Wistar rat administered with the parent compound at 100 mg/kg, po; format: ADME, organism-based; design: dose 100 mg/kg, route oral; settings: in vivo
Rattus norvegicus [43] = assay: Half life of the metabolite 13-hydroxy-2,2,12,12-tetramethyl-7-oxotridecanoic acid in male Wistar rat administered with the parent compound at 100 mg/kg, po; format: ADME, organism-based; design: dose 100 mg/kg, route oral; settings: in vivo
Rattus norvegicus [44] = assay: Cmax of the metabolite 7-hydroxy-2,2,12,12-tetramethyltridecanedioic acid in male Wistar rat administered with the parent compound at 100 mg/kg, po; format: ADME, organism-based; design: dose 100 mg/kg, route oral; settings: in vivo
Rattus norvegicus [45] = assay: Cmax of the metabolite 2,2,12,12-tetramethyl-7-oxotridecanedioic acid in male Wistar rat administered with the parent compound at 100 mg/kg, po; format: ADME, organism-based; design: dose 100 mg/kg, route oral; settings: in vivo
Rattus norvegicus [46] = assay: Activity against triglyceride level in obese female Zucker rat serum after 1 week at 100 mg/kg (percent change from pre-treatment); format: functional
Rattus norvegicus [47] = assay: Tmax of the metabolite 13-hydroxy-2,2,12,12-tetramethyl-7-oxotridecanoic acid in male Wistar rat administered with the parent compound at 100 mg/kg, po; format: ADME, organism-based; design: dose 100 mg/kg, route oral; settings: in vivo

SMILES: CC(C)(CO)CCCCNCCCCC(C)(C)CO
Activity (Rattus norvegicus [1]): 78%
Activity (Rattus norvegicus [2]): 16%
Activity (Rattus norvegicus [3]): -23%
Activity (Rattus norvegicus [4]): -32%
Activity (Rattus norvegicus [5]): -24%
Activity (Rattus norvegicus [6]): -10%
IC50 (Hepatocyte; hepatocyte): Not Active

SMILES: CC(CO)(CCC[S+]([O-])CCCC(C)(CO)c1ccccc1)c1ccccc1 (stereo not given)
Activity (Rattus norvegicus [7]): 18%
Activity (Rattus norvegicus [8]): -23%
IC50 (Hepatocyte; hepatocyte): Not Active
Activity (Rattus norvegicus [9]): -36%
Activity (Rattus norvegicus [10]): 81%
Activity (Rattus norvegicus [11]): 41%
Activity (Rattus norvegicus [12]): 68%

AUC (Rattus norvegicus [13]): 1176.1 µg·h/mL
Vdss (Rattus norvegicus [14]): 2.0721 L/kg
CL (Rattus norvegicus [15]): 28.4 mL/h
AUC (Rattus norvegicus [16]): 230.3 µg·h/mL
Cmax (Rattus norvegicus [17]): 21.4 µg/mL
Vdss (Rattus norvegicus [20]): 1.5332 L/kg
AUC (Rattus norvegicus [21]): 26.8 µg·h/mL
Tmax (Rattus norvegicus [23]): 6 h
AUC (Rattus norvegicus [25]): 289.9 µg·h/mL
AUC (Rattus norvegicus [27]): 703.3 µg·h/mL
CL (Rattus norvegicus [28]): 69 mL/h
Vdss (Rattus norvegicus [29]): 5.6319 L/kg
AUC (Rattus norvegicus [31]): 291.6 µg·h/mL
CL (Rattus norvegicus [32]): 747.9 mL/h
T1/2 (Rattus norvegicus [33]): 13.5 h
T1/2 (Rattus norvegicus [34]): 16.9 h
T1/2 (Rattus norvegicus [35]): 3.1 h
Tmax (Rattus norvegicus [36]): 6 h
Vdss (Rattus norvegicus [37]): 13.6709 L/kg
AUC (Rattus norvegicus [38]): 344.9 µg·h/mL
CL (Rattus norvegicus [39]): 86.8 mL/h
Tmax (Rattus norvegicus [40]): 6 h
AUC (Rattus norvegicus [41]): 26.7 µg·h/mL
Cmax (Rattus norvegicus [42]): 2 µg/mL
T1/2 (Rattus norvegicus [43]): 2.5 h
Cmax (Rattus norvegicus [44]): 40.6 µg/mL
Cmax (Rattus norvegicus [45]): 14.9 µg/mL
Tmax (Rattus norvegicus [47]): 0.5 h
SMILES: CC(C)(CO)CCCCC(=O)CCCCC(C)(C)CO
Activity (Rattus norvegicus [18]): -29%
Activity (Rattus norvegicus [19]): 111%
Activity (Rattus norvegicus [22]): 126%
Activity (Rattus norvegicus [24]): -10%
Activity (Rattus norvegicus [26]): -23%
Activity (Rattus norvegicus [30]): Active
IC50 (Hepatocyte; Rattus norvegicus, Sprague-Dawley, Hepatocyte, read-out: IC50): 1.5 µM
Activity (Rattus norvegicus [46]): -54%
